Data as given in ChEMBL document CHEMBL4229569, “Structure-Based Design of 1-Heteroaryl-1,3-propanediamine Derivatives as a Novel Series of CC-Chemokine Receptor 5 Antagonists” (J Med Chem, 2018).
pIC50: −log10 of the molar value.

How the values were obtained:
[1] = target: C-C chemokine receptor type 5 (Homo sapiens, UniProt P51681); test: Antagonist activity at CCR5 (unknown origin) expressed in HEK293 cells co-expressing Galpha16 assessed as inhibition of RANTES-induced calcium flux preincubated for 10 mins followed by RANTES addition by fluo-4AM-based fluorescence assay; type: functional, cell-based
C-C chemokine receptor type 5, sequence (P51681 whole entry): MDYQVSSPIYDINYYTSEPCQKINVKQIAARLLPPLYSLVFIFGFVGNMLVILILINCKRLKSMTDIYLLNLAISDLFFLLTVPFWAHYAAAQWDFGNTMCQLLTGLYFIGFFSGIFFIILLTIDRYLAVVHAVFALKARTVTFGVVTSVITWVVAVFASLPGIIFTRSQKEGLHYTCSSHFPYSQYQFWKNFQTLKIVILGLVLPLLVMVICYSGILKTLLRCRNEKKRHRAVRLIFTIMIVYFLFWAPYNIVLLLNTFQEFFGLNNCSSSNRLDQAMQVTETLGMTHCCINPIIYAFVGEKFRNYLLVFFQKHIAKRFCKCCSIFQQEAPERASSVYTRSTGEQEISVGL

[2] = Cytotoxicity against human TZM-bl cells after 48 hrs by MTT assay; type: cell-based
[3] = Cmax in Sprague-Dawley rat at 20 mg/kg, po by LC-MS/MS analysis; type: ADME, organism-based; parameters: dose 20 mg/kg, route oral; details: in vivo
[4] = Tmax in Sprague-Dawley rat at 20 mg/kg, po by LC-MS/MS analysis; type: ADME, organism-based; details: in vivo
[5] = Half life in Sprague-Dawley rat at 20 mg/kg, po by LC-MS/MS analysis; type: ADME, organism-based; details: in vivo
[6] = AUC (0 to infinity) in Sprague-Dawley rat at 20 mg/kg, po by LC-MS/MS analysis; type: ADME, organism-based; parameters: dose 20 mg/kg, route oral, time infinity; details: in vivo
[7] = MRT in Sprague-Dawley rat at 20 mg/kg, po by LC-MS/MS analysis; type: ADME, organism-based; details: in vivo
[8] = Oral bioavailability in Sprague-Dawley rat at 20 mg/kg by LC-MS/MS analysis; type: ADME, organism-based; details: in vivo
[9] = Cmax in Sprague-Dawley rat at 10 mg/kg, iv by LC-MS/MS analysis; type: ADME, organism-based; parameters: dose 10 mg/kg, route intravenous; details: in vivo
[10] = Tmax in Sprague-Dawley rat at 10 mg/kg, iv by LC-MS/MS analysis; type: ADME, organism-based; details: in vivo
[11] = Half life in Sprague-Dawley rat at 10 mg/kg, iv by LC-MS/MS analysis; type: ADME, organism-based; details: in vivo
[12] = AUC (0 to infinity) in Sprague-Dawley rat at 10 mg/kg, iv by LC-MS/MS analysis; type: ADME, organism-based; parameters: dose 10 mg/kg, time infinity, route intravenous; details: in vivo
[13] = MRT in Sprague-Dawley rat at 10 mg/kg, iv by LC-MS/MS analysis; type: ADME, organism-based; details: in vivo
[14] = Clearance in Sprague-Dawley rat at 10 mg/kg, iv by LC-MS/MS analysis; type: ADME, organism-based; details: in vivo
[15] = target: Voltage-gated inwardly rectifying potassium channel KCNH2 (Homo sapiens, UniProt Q12809); test: Inhibition of human ERG expressed in CHO cells at holding potential of -80 mV after 60 secs by patch clamp assay; type: cell-based
Voltage-gated inwardly rectifying potassium channel KCNH2, sequence (Q12809 whole entry): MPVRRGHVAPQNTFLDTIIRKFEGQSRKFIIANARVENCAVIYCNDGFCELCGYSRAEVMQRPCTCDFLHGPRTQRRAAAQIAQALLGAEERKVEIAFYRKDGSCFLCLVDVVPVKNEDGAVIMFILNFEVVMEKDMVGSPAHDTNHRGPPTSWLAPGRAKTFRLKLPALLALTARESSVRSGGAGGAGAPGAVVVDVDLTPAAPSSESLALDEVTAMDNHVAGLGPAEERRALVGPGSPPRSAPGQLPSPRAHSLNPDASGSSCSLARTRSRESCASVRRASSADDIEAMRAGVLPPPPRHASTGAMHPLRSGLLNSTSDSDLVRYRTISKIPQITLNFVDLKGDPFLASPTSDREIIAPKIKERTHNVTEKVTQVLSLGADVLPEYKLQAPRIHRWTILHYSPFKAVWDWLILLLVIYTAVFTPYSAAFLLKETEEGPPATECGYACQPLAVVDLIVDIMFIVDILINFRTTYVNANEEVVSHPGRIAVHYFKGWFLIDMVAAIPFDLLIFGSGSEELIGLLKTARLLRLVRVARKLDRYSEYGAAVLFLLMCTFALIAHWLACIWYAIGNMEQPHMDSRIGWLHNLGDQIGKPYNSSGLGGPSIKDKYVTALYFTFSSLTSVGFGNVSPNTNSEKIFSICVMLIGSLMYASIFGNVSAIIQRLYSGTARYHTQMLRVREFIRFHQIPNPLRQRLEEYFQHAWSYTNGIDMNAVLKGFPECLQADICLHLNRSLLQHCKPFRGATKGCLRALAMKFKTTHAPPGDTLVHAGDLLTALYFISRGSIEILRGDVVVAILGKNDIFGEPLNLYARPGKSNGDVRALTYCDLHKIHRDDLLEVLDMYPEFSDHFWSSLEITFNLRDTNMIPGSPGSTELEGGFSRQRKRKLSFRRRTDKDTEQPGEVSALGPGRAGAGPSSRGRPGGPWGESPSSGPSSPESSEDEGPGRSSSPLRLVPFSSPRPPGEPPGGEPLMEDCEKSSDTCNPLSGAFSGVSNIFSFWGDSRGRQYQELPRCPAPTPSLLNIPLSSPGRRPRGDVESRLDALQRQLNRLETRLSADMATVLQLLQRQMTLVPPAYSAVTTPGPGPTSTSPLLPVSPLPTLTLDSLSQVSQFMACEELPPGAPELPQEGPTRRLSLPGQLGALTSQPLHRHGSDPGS

Cytochrome P450 1A2 = target: T1, Cytochrome P450 1A2 (Homo sapiens, UniProt P05177); test: Inhibition of CYP1A2 (unknown origin); type: ADME
T1 sequence (P05177 whole entry): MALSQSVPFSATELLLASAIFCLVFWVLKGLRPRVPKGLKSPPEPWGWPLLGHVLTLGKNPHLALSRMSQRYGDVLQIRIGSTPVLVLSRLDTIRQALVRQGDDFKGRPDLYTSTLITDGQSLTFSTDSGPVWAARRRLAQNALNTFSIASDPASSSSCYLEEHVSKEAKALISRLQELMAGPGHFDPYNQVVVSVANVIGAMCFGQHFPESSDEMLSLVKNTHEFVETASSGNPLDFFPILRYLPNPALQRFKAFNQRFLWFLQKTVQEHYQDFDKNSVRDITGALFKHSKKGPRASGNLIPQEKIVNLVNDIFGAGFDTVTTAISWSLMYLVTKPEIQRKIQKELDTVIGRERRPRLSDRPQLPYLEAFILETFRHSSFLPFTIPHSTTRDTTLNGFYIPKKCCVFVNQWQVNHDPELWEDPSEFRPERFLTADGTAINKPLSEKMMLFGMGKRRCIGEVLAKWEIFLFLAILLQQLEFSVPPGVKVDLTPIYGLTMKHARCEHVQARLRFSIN

Cytochrome P450 2C9 = Cytochrome P450 2C9 (Homo sapiens, UniProt P11712); test: Inhibition of CYP2C9 (unknown origin); type: ADME
Cytochrome P450 2C9, sequence (P11712 whole entry): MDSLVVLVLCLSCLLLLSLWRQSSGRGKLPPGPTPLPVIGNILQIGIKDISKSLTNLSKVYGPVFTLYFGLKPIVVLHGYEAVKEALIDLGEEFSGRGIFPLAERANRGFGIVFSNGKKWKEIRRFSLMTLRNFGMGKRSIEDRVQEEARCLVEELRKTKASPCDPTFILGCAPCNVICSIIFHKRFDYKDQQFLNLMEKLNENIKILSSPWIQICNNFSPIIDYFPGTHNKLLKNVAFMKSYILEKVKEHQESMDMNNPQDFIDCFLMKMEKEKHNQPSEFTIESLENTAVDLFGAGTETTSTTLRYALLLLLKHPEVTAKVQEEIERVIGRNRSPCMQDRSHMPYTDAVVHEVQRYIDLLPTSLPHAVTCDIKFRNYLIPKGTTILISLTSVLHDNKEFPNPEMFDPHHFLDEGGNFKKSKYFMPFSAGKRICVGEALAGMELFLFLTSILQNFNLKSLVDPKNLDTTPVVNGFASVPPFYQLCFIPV

Cytochrome P450 2C19 = Cytochrome P450 2C19 (Homo sapiens, UniProt P33261); test: Inhibition of CYP2C19 (unknown origin); type: ADME
Cytochrome P450 2C19, sequence (P33261 whole entry): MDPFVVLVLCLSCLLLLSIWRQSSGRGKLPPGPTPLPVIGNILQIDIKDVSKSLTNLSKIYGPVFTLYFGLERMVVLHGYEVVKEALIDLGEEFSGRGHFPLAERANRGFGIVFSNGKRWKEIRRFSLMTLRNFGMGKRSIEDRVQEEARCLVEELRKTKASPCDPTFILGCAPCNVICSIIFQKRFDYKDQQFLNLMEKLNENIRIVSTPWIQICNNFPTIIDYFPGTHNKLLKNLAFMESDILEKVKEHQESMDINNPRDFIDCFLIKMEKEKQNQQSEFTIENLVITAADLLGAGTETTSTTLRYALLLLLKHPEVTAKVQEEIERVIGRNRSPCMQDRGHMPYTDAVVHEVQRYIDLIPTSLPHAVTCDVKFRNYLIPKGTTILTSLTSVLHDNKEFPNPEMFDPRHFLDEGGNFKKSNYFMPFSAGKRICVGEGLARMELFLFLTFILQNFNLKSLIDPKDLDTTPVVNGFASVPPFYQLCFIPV

Cytochrome P450 2D6 = Cytochrome P450 2D6 (Homo sapiens, UniProt P10635); test: Inhibition of CYP2D6 (unknown origin); type: ADME
Cytochrome P450 2D6, sequence (P10635 whole entry): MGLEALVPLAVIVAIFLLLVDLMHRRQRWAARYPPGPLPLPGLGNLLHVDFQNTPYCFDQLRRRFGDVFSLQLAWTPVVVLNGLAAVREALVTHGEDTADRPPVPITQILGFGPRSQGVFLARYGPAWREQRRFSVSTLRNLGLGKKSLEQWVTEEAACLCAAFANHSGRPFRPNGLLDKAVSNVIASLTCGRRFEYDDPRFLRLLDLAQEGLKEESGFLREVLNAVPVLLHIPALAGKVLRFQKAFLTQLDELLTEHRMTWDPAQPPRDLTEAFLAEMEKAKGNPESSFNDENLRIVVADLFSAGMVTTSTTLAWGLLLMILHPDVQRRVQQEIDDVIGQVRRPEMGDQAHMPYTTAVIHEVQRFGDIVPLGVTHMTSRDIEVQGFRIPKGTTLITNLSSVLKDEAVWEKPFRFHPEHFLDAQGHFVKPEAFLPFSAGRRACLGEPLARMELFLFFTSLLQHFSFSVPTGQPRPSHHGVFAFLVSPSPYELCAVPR

Cytochrome P450 3A4 [16] = target: T2, Cytochrome P450 3A4 (Homo sapiens, UniProt P08684); test: Inhibition of CYP3A4 (unknown origin) using midazolam as substrate; type: ADME
T2 sequence (P08684 whole entry): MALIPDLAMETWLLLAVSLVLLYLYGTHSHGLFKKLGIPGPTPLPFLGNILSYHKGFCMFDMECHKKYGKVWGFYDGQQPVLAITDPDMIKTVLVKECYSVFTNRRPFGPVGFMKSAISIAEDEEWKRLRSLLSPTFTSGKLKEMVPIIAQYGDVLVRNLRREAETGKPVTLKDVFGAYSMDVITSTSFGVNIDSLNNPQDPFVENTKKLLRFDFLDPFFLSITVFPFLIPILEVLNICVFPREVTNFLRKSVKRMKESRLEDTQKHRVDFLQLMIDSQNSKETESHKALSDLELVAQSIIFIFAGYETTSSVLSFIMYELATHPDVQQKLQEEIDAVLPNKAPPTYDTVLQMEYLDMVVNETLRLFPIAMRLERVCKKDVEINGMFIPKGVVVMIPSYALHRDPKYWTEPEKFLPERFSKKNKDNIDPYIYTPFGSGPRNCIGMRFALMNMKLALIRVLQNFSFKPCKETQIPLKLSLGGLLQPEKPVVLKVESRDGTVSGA

Cytochrome P450 3A4 [17] = target: T2, Cytochrome P450 3A4; test: Inhibition of CYP3A4 (unknown origin) using testosterone as substrate; type: ADME
in vitro [18] = details: human, TZM-bl cells
Description: Therapeutic index, ratio of CC50 for human TZM-bl cells to EC50 for CCR5-dependent HIV1 SF162 infected in human TZM-bl cells

in vitro [19] = details: human, PBMC
Description: Therapeutic index, ratio of CC50 for human PBMC to IC50 for CCR5-dependent HIV1 SF162 infected in human PBMC cells

in vitro [20] = details: human, HOS cells
Description: Therapeutic index, ratio of CC50 for human HOS cells to IC50 for CCR5-dependent HIV1 SF162 infected in human HOS cells

in vitro [21] = details: human, PBMC; remark: listed apart in the source
Description: Therapeutic index, ratio of CC50 for human PBMC to IC50 for CCR5-dependent HIV1 KM018 infected in human PBMC

in vitro [22] = details: human, PBMC; remark: listed apart in the source
Description: Therapeutic index, ratio of CC50 for human PBMC to IC50 for CCR5-dependent HIV1 Ba-L infected in human PBMC

in vitro [23] = details: human, HOS cells; remark: listed apart in the source
Description: Therapeutic index, ratio of CC50 for human HOS cells to IC50 for CCR5-dependent HIV1 Ba-L infected in human HOS cells

in vitro [24] = details: human, PM1 cells
Description: Therapeutic index, ratio of CC50 for human PM1 cells to IC50 for CCR5-dependent HIV1 Ba-L infected in human PM1 cells

[25] = tested on: Human immunodeficiency virus 1; test: microbe, parasite or virus in culture; details: Human immunodeficiency virus 1, SF162, TZM-bl, 48 h
Description: Antiviral activity against CCR5-dependent HIV1 SF162 infected in human TZM-bl cells assessed as reduction in virus infection measured after 48 hrs post infection by luciferase reporter gene assay

[26] = tested on: Human immunodeficiency virus 1; test: microbe, parasite or virus in culture; details: Human immunodeficiency virus 1, SF162, PBMC, 168 h
Description: Antiviral activity against CCR5-dependent HIV1 SF162 infected in human PBMC assessed as reduction in virus infection measured after 7 days by luciferase reporter gene assay

[27] = tested on: Human immunodeficiency virus 1; test: microbe, parasite or virus in culture; details: Human immunodeficiency virus 1, SF162, HOS, 120 h
Description: Antiviral activity against CCR5-dependent HIV1 SF162 infected in human HOS cells assessed as reduction in virus infection measured after 5 days by luciferase reporter gene assay

[28] = tested on: Human immunodeficiency virus 1; test: microbe, parasite or virus in culture; details: Human immunodeficiency virus 1, KM018, PBMC, 168 h
Description: Antiviral activity against CCR5-dependent HIV1 KM018 infected in human PBMC assessed as reduction in virus infection measured after 7 days by luciferase reporter gene assay

[29] = tested on: Human immunodeficiency virus 1; test: microbe, parasite or virus in culture; details: Human immunodeficiency virus 1, Ba-L, PBMC, 168 h
Description: Antiviral activity against CCR5-dependent HIV1 Ba-L infected in human PBMC assessed as reduction in virus infection measured 7 days by luciferase reporter gene assay

[30] = tested on: Human immunodeficiency virus 1; test: microbe, parasite or virus in culture; details: Human immunodeficiency virus 1, Ba-L, HOS, 120 h
Description: Antiviral activity against CCR5-dependent HIV1 Ba-L infected in human HOS cells assessed as reduction in virus infection measured after 5 days by luciferase reporter gene assay

[31] = tested on: Human immunodeficiency virus 1; test: microbe, parasite or virus in culture; details: Human immunodeficiency virus 1, Ba-L, PM1, 120 h
Description: Antiviral activity against CCR5-dependent HIV1 Ba-L infected in human PM1 cells assessed as reduction in virus infection measured after 5 days by luciferase reporter gene assay

## Cc1nnc(C2CC2)n1[C@@H]1C[C@H]2CC[C@@H](C1)N2CC[C@H](NC(=O)C1CCC(F)(F)CC1)c1ccsc1
[1]
  pIC50: 8.59

## Cc1ccc([C@H](CCN2[C@@H]3CC[C@H]2C[C@H](n2c(C)nnc2C(C)C)C3)NC(=O)c2ccccc2)s1
[1]
  pIC50: 7.29

## Cc1nnc(C(C)C)n1[C@@H]1C[C@H]2CC[C@@H](C1)N2CC[C@H](NC(=O)C1CCC(F)(F)CC1)c1ccc(Cl)s1
[1]
  pIC50: 7.92

## Cc1nnc(C(C)C)n1[C@@H]1C[C@H]2CC[C@@H](C1)N2CC[C@H](NC(=O)C1CCC(F)(F)CC1)c1ccc(F)nc1
[1]
  pIC50: 6.60

## Cc1nnc(C2CC2)n1[C@@H]1C[C@H]2CC[C@@H](C1)N2CC[C@H](NC(=O)C1CCC(F)(F)CC1)c1cccs1
[1]
  pIC50: 8.54

## Cc1nnc(C(C)C)n1[C@@H]1C[C@H]2CC[C@@H](C1)N2CC[C@H](NC(=O)C1CCC(F)(F)CC1)c1cccs1
[1]
  pIC50: 8.04
[2]
  CC50 at 48 h: > 200000 nM
[3]
  Cmax: 266 ng/mL
[4]
  Tmax: 4 h
[5]
  half-life: 2.1 h
[6]
  AUC(0-inf): 1110 ng·h/mL
[7]
  MRT: 3.3 h
[8]
  bioavailability: 7.8%
[9]
  Cmax: 6840 ng/mL
[10]
  Tmax: 0.25 h
[11]
  half-life: 0.77 h
[12]
  AUC(0-inf): 7050 ng·h/mL
[13]
  MRT: 0.7 h
[14]
  clearance: 23.7 mL/min/kg
[15]
  pIC50: 5.46
Cytochrome P450 1A2
  pIC50: < 4.60
Cytochrome P450 2C9
  pIC50: < 4.60
Cytochrome P450 2C19
  pIC50: < 4.60
Cytochrome P450 2D6
  pIC50: < 4.60
Cytochrome P450 3A4 [16]
  pIC50: < 4.60
Cytochrome P450 3A4 [17]
  pIC50: < 4.60
In vitro [18]
  selectivity ratio: > 55000
In vitro [19]
  selectivity ratio: 92000
In vitro [20]
  selectivity ratio: 28000
In vitro [21]
  selectivity ratio: 56000
In vitro [22]
  selectivity ratio: 9400
In vitro [23]
  selectivity ratio: 100000
In vitro [24]
  selectivity ratio: 99000
[25]
  pIC50: 8.44
[26]
  pIC50: 8.54
[27]
  pIC50: 7.88
[28]
  pIC50: 8.32
[29]
  pIC50: 7.55
[30]
  pIC50: 8.44
[31]
  pIC50: 8.21

## Cc1nnc(C(C)C)n1[C@@H]1C[C@H]2CC[C@@H](C1)N2CC[C@H](NC(=O)C1CCC(F)(F)C1)c1cccs1 (stereo not given in full)
[1]
  pIC50: 8.64

## Cc1nnc(C(C)C)n1[C@@H]1C[C@H]2CC[C@@H](C1)N2CC[C@H](NC(=O)[C@@H]1CCC(=O)N1)c1cccs1
[1]
  pIC50: 7.69

## Cc1ccc([C@H](CCN2[C@@H]3CC[C@H]2C[C@H](n2c(C)nnc2C(C)C)C3)NC(=O)C2CCC(F)(F)CC2)s1
[1]
  pIC50: 8.55
[2]
  CC50 at 48 h: > 200000 nM
[3]
  Cmax: 580 ng/mL
[4]
  Tmax: 2 h
[5]
  half-life: 32.8 h
[6]
  AUC(0-inf): 1870 ng·h/mL
[7]
  MRT: 4.8 h
[8]
  bioavailability: 40.1%
[9]
  Cmax: 1690 ng/mL
[10]
  Tmax: 0.25 h
[11]
  half-life: 1.6 h
[12]
  AUC(0-inf): 2330 ng·h/mL
[13]
  MRT: 2.3 h
[14]
  clearance: 71.7 mL/min/kg
[15]
  pIC50: 5.47
Cytochrome P450 1A2
  pIC50: < 4.60
Cytochrome P450 2C9
  pIC50: < 4.60
Cytochrome P450 2C19
  pIC50: < 4.60
Cytochrome P450 2D6
  pIC50: < 4.60
Cytochrome P450 3A4 [16]
  pIC50: 4.96
Cytochrome P450 3A4 [17]
  pIC50: 4.63
In vitro [18]
  selectivity ratio: > 17000
In vitro [19]
  selectivity ratio: > 29000
In vitro [20]
  selectivity ratio: > 11000
In vitro [21]
  selectivity ratio: > 1600
In vitro [22]
  selectivity ratio: > 833
In vitro [23]
  selectivity ratio: > 18000
In vitro [24]
  selectivity ratio: > 13000
[25]
  pIC50: 7.94
[26]
  pIC50: 8.17
[27]
  pIC50: 7.73
[28]
  pIC50: 6.90
[29]
  pIC50: 6.62
[30]
  pIC50: 7.94
[31]
  pIC50: 7.83

## Cc1nnc(C(C)C)n1[C@@H]1C[C@H]2CC[C@@H](C1)N2CC[C@H](NC(=O)C1CC(F)(F)C1)c1cccs1
[1]
  pIC50: 8.59

## Cc1nnc(C(C)C)n1[C@@H]1C[C@H]2CC[C@@H](C1)N2CC[C@H](NC(=O)C1CCC(F)(F)CC1)c1cccnc1
[1]
  pIC50: 7.08
[2]
  CC50 at 48 h: > 100000 nM
In vitro [18]
  selectivity ratio: > 65.8
[25]
  pIC50: 5.82

## Cc1ccc([C@H](CCN2[C@@H]3CC[C@H]2C[C@H](n2c(C)nnc2C(C)C)C3)NC(=O)Cc2ccc(F)cc2)s1
[1]
  pIC50: 7.48

## COc1ccc([C@H](CCN2[C@@H]3CC[C@H]2C[C@H](n2c(C)nnc2C(C)C)C3)NC(=O)C2CCC(F)(F)CC2)s1
[1]
  pIC50: 8.17

## Cc1ccc([C@H](CCN2[C@@H]3CC[C@H]2C[C@H](n2c(C(C)C)nnc2C(F)(F)F)C3)NC(=O)C2CCC(F)(F)CC2)s1
[1]
  pIC50: 8.40
